The subject of data set [1] is B16 murine melanoma cells. The experiment in a line: Living and dead B16 cells after 3 hours (FIGS. 2A, 9). It is filed as cell-based. The following applies: 3 hours. The protocol:
In FIG. 2A the peptides as indicated were applied to the cells at a concentration of 60 μM. The number of living and dead cells were assessed after 3 hours. Black bars=number of cells dead. White bars=number of cells alive.
(§1) The peptides as indicated were applied to the cells at a concentration of 60 μM (FIG. 6A) or 6 μM (FIG. 6B). In both experiments the HXArg9, CX1Arg9 and CX2Arg9 peptides used were the (2D) variant peptides in which the N- and C-terminal amino acids are in the D conformation and all remaining amino acids are in the L conformation. The number of living and dead cells were assessed after 3 hours. Black bars=% or number of cells dead. White bars=% or number of cells alive.
The HXArg9 peptide used was the (2D) variant peptide in which the N- and C-terminal amino acids are in the D conformation and all remaining amino acids are in the L conformation. HXArg9 was applied to the cells at a variety of concentrations (μM), and the number of dead and living cells was assessed after 3 hours. Black bars=% cells dead. White bars=% cells alive.
(§2) Cell lines were seeded at 4×10^4 cells/ml in liquid culture system made of RPMI-1640 medium (Life Technologies, UK) supplemented with Foetal Calf Serum (10% Sigma Aldrich) and penicillin/streptomycin (1%, Sigma) and at least in duplicate. When required the test peptide was added to the medium. Cell lines were cultured for up to 7 days at 37° C., 5% CO2 in humidified atmosphere. Cultured cells were then assessed for cell viability/enumeration using trypan blue exclusion (Sigma Aldrich).

The test system of data set [2] is A549 tumours. The data set is described as follows: Treatment of A549 tumours in vivo. More on the design: species or system mice. The conditions noted are these: twice weekly, 100 mg/kg followed by 10 mg/kg. The protocol: FIG. 13. Treatment of A549 tumours in vivo. Nude mice were injected with one million A549 cells subcutaneously and treatment was started when tumours reached an average volume of 100 mm^3. […] (a) intralesional (IT) administration, (b) intraperitoneal (IP) administration.
(§3) Control groups received control peptide and PBS accordingly. For the A549 tumour model, […] were used to establish flank models. This study was conducted by Perry Scientific Inc., USA.
We also examined whether HXArg9 could block the growth of a non-melanoma tumour in vivo. In order to do this, we established flank tumours using the non-small cell lung cancer derived cell line A549 (Lieber, M., et al. Int. J. Cancer 17, 62-70 (1976)) in nude mice.

Data set [3] has as its system HOX/PBX/DNA complexes. The experiment in a line: Band shift assay, protein extracted from treated B16 tumours. It is filed as in vivo, mice. The conditions noted are these: tumours treated for two hours. As for the experimental part:
Double stranded oligodexoynucleotide probes were incubated in protein extracted from B16 tumours. One of these probes (HP) contained a HOX/PBX consensus binding region (bold)—5′ CTGTTTGATT TATTTGTTTA 3′. A second, control probe (CP) contained an altered HOX/PBX binding site that is not predicted to bind HOX and PBX proteins—5′ CTGTTACTGA CGATTGTTTA 3′. […] The mobility of CP was unchanged by incubating with the protein extract (lane 11). […] U, untreated; C, CX2Arg9(2D) treated; H, HXArg9(2D) treated; +HP, the HP probe was added to the lysates with an excess of unlabelled probe as shown (0, 5 fold, or 25 fold); +CP, control probe added to lysates; ‘+anti PBX’, anti-PBX antibody added to lysate; ‘+block pep’, a blocking peptide was added to the lysate that blocks anti-PBX antibody from binding to PBX.
(§4) In order to assess whether the hexapeptide could block HOX/PBX binding in vivo, tumours were treated with HXArg9 for two hours and then used to produce nuclear lysates.

The test system of data set [4] is B16 tumours. The experiment in a line: QPCR of RNA extracted from treated B16 tumours. In kind it is in vivo, mice. The conditions noted are these: IP 15 mg/Kg, two hours after treatment. As for the experimental part: FIG. 10. […] RNA extracted from (a) B16 cells cultured in vitro and treated with 60 μM peptide for two hours, and (b) B16 tumours treated with peptide injected IP at 15 mg/Kg body weight; tumours were excised and RNA was extracted two hours after treatment. Results are expressed as a proportion of the level of β-actin transcripts. For (a), the results are an average of 2 separate experiments, for (b), the results are an average for tumours taken from three individual mice. U, untreated; C, CX2Arg9(2D) treated; H, HXArg9(2D) treated. Error bars represent the standard error of the mean.
as §4

Data set [5] concerns B16 tumours. The data set is described as follows: Treatment of murine B16 tumours in vivo. More on the design: species or system mice. The conditions noted are these: 15 mg/kg intraperitoneal. As for the experimental part: FIG. 12. Treatment of murine B16 tumours in vivo. Mice were injected with one million B16 cells subcutaneously and treatment was started when tumours first became palpatable (day 1=first day after treatment). Mice were injected once daily for four days with an intraperitoneal dose of 15 mg/kg. (a) Changes in tumour size over treatment period (n=4). (b) Histological sections of tumours from HXArg9(2D) (HXR9) and CX2Arg9(2D) (CXR9) treated mice at the end of treatment.
Mice were maintained at the Biological Resource Facility at St. George's. Their care was in accordance to Home Office regulations. B16 cells in exponential growth phase were injected subcutaneously at a dose of 1×10^6 cells into C57black/6 mice. Tumour growth was monitored daily. Once tumours were established, mice received 15 mg/kg HXArg9(2D) intraperitoneal. Mice were euthanised and tumours excised and fixed for histopathological analysis.
as §3
The B16 F10 murine tumour is a well established in vivo model of melanoma, and is also one of the most aggressive murine tumours (Fidler, I. J. & Nicolson, G. L. Isr. J. Med. Sci. 14, 38-50 (1978), Shrayer, D. et al. Cancer Immunol Immunother. 40, 277-282 (1995)). […]

For data set [6], the system named is malignant cell lines (B16 mouse melanoma, LNCAP human prostate cancer, K562). The experiment in a line: Activity of peptides on different malignant cell lines, living and dead cells after 3 hours (FIGS. 6 to 8). In kind it is cell-based. The following applies: further experiments. The protocol: as §1
The peptides as indicated were applied to the cells at a concentration of 60 μM (FIG. 7A) or 6 μM (FIG. 7B). In both experiments the HXArg9, CX1Arg9 and CX2Arg9 peptides used were the (2D) variant peptides in which the N- and C-terminal amino acids are in the D conformation and all remaining amino acids are in the L conformation. The number of living and dead cells were assessed after 3 hours. Black bars=% or number of cells dead. White bars=% or number of cells alive.
as §1, with “μM. HXArg9(2D) is” for “μM (FIG. 6A) or 6 μM (FIG. 6B). In both experiments”, “variant form of HXArg9 in which the N-terminal and C-terminal amino acids are in the D conformation and the remaining amino acids are in the L conformation. HXArg9 consists of only L-conformation amino acids. The” for “HXArg9,”, “bars=%” for “bars=% or number of”
as §2
The activity of the peptides described above was tested on a number of different malignant cell lines using a similar assay to that described previously.

Data set [7] is described as follows: Stability of peptides in human plasma at 37° C., SDS-PAGE. It is filed as in vitro ADME. As for the experimental part: Peptides were incubated in human serum for the times shown and then visualised on a Coomassie brilliant blue stained gel. The arrow heads indicate the position of intact peptide. Standard=peptide only in this lane as a marker.
The stability of HXArg9(2D) and CX2Arg9(2D) was assessed by incubation each with human plasma at 37° C. and the amount of peptide remaining after different amounts of time was assessed by SDS-PAGE. Each peptide was added to freshly prepared human plasma to a final concentration of 1 mM in a total volume of 40 μl. Samples were incubated at 37° C. and reactions were stopped by adding 60 μl of water and 0.9 ml of protein gel loading buffer (BioRad, USA) containing 1% 2-mercaptoethanol, and heating to 95° C. for four minutes. 2 μl of each sample was run on a 22% acrylamide gel. […] This compared with a half life of approximately 40 minutes for the L isomer form HXArg9.

The half-life is how long it takes for the measured level to halve. A high value points to slow loss.

In the case of `CSCC[C@H](NC(=O)[C@H](Cc1c[nH]c2ccccc12)NC(=O)[C@@H]1CCCN1C(=O)[C@H](Cc1ccc(O)cc1)NC(=O)[C@@H](N)Cc1c[nH]c2ccccc12)C(=O)N[C@@H](CCCCN)C(=O)N[C@@H](CCCCN)C(=O)N[C@@H](Cc1c[nH]cn1)C(=O)N[C@@H](Cc1c[nH]cn1)C(=O)N[C@@H](CCCNC(=N)N)C(=O)N[C@@H](CCCNC(=N)N)C(=O)N[C@@H](CCCNC(=N)N)C(=O)N[C@@H](CCCNC(=N)N)C(=O)N[C@@H](CCCNC(=N)N)C(=O)N[C@@H](CCCNC(=N)N)C(=O)N[C@@H](CCCNC(=N)N)C(=O)N[C@@H](CCCNC(=N)N)C(=O)N[C@@H](CCCNC(=N)N)C(=O)O` [HXArg9, WYPWMKKHHRRRRRRRRR], the values for the ablation of cells entry in data set [1] (4.625 μM), in data set [1] (37 μM) and in data set [1] (74 μM) were “significant ablation”, “ablation of substantially all” and “ablation of substantially all”, respectively. In data set [2], the tumour growth result is recorded as “significant reduction in tumour growth”. For the same compound, in data set [3], the “binding of tumour protein extract to HOX/PBX consensus probe” value was “could not bind a DNA probe containing a HOX/PBX consensus binding site”. The “transcripts of Fos, Jun, Dusp1 and Atf3 (QPCR)” value in data set [4] is reported as “upregulated”. Also, in data set [5], the “histological analysis of excised tumours” value was “inner cell death”. Also, the “tumour size at end point” value in data set [5] (once daily for four days) is reported as “significant degree of shrinkage”. Also, in data set [6], the “effectiveness in preventing cellular proliferation compared with HXP4” value is given as “as effective as HXP4”. In addition, the half-life in data set [7] was around 40 min.

These data come from patent US20090286738A1, “Gene Regulation” (ST. GEORGE'S ENTERPRISES LIMITED, priority 2005, published 2009).
